Source: patent US6221386A (priority 1996, dated 2001)
Like-named read-outs stand apart in the source and are kept apart here.

Experiments:
Format in all cases: in vivo, BALB/c mice
Brucella melitensis 16M [1] = settings: intramuscular; 1 mg antibiotic/mouse on days 7, 8 and 9; sacrificed day 12
Brucella melitensis 16M [2] = settings: 1 mg/mouse intramuscularly
Brucella melitensis 16M [3] = settings: 1 mg ciprofloxacin/mouse intramuscularly, 5 × 10^4 CFU

Compound	Spleen counts after antibiotic was given (Brucella melitensis 16M [1])	B. melitensis 16M counts in spleens 7 days after infection (Brucella melitensis 16M [2]; single dose 1 day after infection (title; head prints before))	B. melitensis 16M counts in spleens 7 days after infection (Brucella melitensis 16M [2]; single dose 2 days after infection (title; head prints before))	B. melitensis 16M counts in spleens 7 days after infection (Brucella melitensis 16M [2]; single dose 3 days after infection (title; head prints before))	B. melitensis 16M counts in spleens 7 days after infection (Brucella melitensis 16M [2]; single dose 7 days after infection (title; head prints before))	B. melitensis 16M counts in spleens 7 days after infection (Brucella melitensis 16M [3]; single dose 1 day before infection)	B. melitensis 16M counts in spleens 7 days after infection (Brucella melitensis 16M [3]; single dose 2 days before infection)	B. melitensis 16M counts in spleens 7 days after infection (Brucella melitensis 16M [3]; single dose 3 days before infection)	B. melitensis 16M counts in spleens 7 days after infection (Brucella melitensis 16M [3]; single dose 7 days before infection)
O=C(O)c1cn(C2CC2)c2cc(N3CCNCC3)c(F)cc2c1=O [Ciprofloxacin, ciprofloxacin]	1.3 ± 0.4 × 10^4	1.6 ± 0.3 × 10^4	13.0 ± 0.6 × 10^4	3.5 ± 0.9 × 10^4	3.9 ± 1.6 × 10^4	1.5 ± 0.3 × 10^4	2.8 ± 1.0 × 10^4	1.4 ± 0.2 × 10^4	1.9 ± 0.4 × 10^4
CN(C)C1C(=O)C(C(N)=O)=C(O)C2(O)C(=O)C3=C(O)c4c(O)cccc4C(C)(O)C3CC12 (stereo not shown) [Tetracycline, tetracycline]	4.8 ± 0.8 × 10^3	–	–	–	–	–	–	–	–
